Drawing on patent US11345681B1, “Inhibitors of fibroblast growth factor receptor kinases” (Kinnate Biopharma Inc., priority 2020, dated 2022), this text covers IC50 for 25 molecules.

A word on the IC50: it is the concentration that gives 50% inhibition.

This experiment addresses Wild type FGFR2 (Homo sapiens (Human), UniProt P21802). Description: FGFR2 kinase assay (fluorescence-based microfluidic mobility shift assay). The class given is biochemical. Particulars: wild type FGFR2 0.06 nM, 100 μM ATP, 80 minutes at room temperature; class symbols.

Sequence of Wild type FGFR2 (P21802 22-821): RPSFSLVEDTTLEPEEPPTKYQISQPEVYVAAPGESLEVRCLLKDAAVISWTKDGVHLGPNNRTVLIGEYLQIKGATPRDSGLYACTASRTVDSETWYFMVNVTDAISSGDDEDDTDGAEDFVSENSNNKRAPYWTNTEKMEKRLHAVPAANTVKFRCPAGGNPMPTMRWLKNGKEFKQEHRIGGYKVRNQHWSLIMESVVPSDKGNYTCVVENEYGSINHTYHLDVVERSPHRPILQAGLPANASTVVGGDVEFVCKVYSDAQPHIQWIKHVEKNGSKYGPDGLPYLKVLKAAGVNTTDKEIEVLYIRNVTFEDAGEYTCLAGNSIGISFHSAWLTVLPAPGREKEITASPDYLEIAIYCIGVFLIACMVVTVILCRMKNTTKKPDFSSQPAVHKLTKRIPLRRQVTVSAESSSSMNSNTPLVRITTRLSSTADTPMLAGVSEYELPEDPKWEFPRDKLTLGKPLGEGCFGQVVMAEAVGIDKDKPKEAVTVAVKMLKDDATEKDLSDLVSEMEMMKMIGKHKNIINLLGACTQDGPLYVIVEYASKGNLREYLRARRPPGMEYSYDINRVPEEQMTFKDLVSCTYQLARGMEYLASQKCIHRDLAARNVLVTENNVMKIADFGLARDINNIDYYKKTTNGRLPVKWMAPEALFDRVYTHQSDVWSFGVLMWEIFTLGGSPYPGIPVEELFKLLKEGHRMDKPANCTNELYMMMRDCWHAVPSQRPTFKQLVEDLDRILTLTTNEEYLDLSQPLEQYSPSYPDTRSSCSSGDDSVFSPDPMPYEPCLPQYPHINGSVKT

Consider `C=CC(=O)N1C[C@@H](n2nc(C#Cc3ccn4c(C)cnc4c3)c(C(N)=O)c2NC)C[C@@H]1COC` [Example 75, 1-[(3S,5R)-5-(Methoxymethyl)-1-(prop-2-enoyl)pyrrolidin-3-yl]-5-(methylamino)-3-(2-[3-methylimidazo[1,2-a]pyridin-7-yl]ethynyl)pyrazole-4-carboxamide], for which the IC50 was not above 100 nM.

Consider `C=CC(=O)N1C[C@@H](n2nc(C#Cc3cc4c(cc3F)ncn4C(F)F)c(C(N)=O)c2NC)C[C@@H]1COC` [Example 76, 3-[2-[3-(Difluoromethyl)-6-fluoro-1,3-benzodiazol-5-yl]ethynyl]-1-[(3S,5R)-5-(methoxymethyl)-1-(prop-2-enoyl)pyrrolidin-3-yl]-5-(methylamino)pyrazole-4-carboxamide], for which the IC50 is not above 100 nM.

Regarding `C=CC(=O)N1C[C@@H](n2nc(C#Cc3cc4ncn(C(F)F)c4cc3F)c(C(N)=O)c2NC)C[C@@H]1COC` [Example 77, 3-[2-[1-(Difluoromethyl)-6-fluoro-1,3-benzodiazol-5-yl]ethynyl]-1-[(3S,5R)-5-(methoxymethyl)-1-(prop-2-enoyl)pyrrolidin-3-yl]-5-(methylamino)pyrazole-4-carboxamide], the IC50 was not above 100 nM.

Turning to `C=CC(=O)N1C[C@@H](n2nc(C#Cc3cc4ncn(C)c4cc3F)c(C(N)=O)c2NC)C[C@@H]1COC(F)(F)F` [Example 79, 3-[2-(6-Fluoro-1-methyl-1,3-benzodiazol-5-yl)ethynyl]-5-(methylamino)-1-[(3S,5R)-1-(prop-2-enoyl)-5-[(trifluoromethoxy)methyl]pyrrolidin-3-y]pyrazole-4-carboxamide], the 50% inhibitory concentration (IC50) is not above 100 nM.

On to `C=CC(=O)N1C[C@@H](n2nc(C#Cc3cc4ncn(CC)c4cc3F)c(C(N)=O)c2NC)C[C@@H]1COC(F)(F)F` [Example 80, 3-[2-(1-Ethyl-6-fluoro-1,3-benzodiazol-5-yl)ethynyl]-5-(methylamino)-1-[(3S,5R)-1-(prop-2-enoyl)-5-[(trifluoromethoxy)methyl]pyrrolidin-3-yl]pyrazole-4-carboxamide], for which the half-maximal inhibitory concentration (IC50) was not above 100 nM.

For `C=CC(=O)N1C[C@@H](n2nc(C#Cc3cc4ncn(C(F)F)c4cc3F)c(C(N)=O)c2NC)C[C@@H]1COC(F)(F)F` [Example 81, 3-[2-[1-(Difluoromethyl)-6-fluoro-1,3-benzodiazol-5-yl]ethynyl]-5-(methylamino)-1-[(3S,5R)-1-(prop-2-enoyl)-5-[(trifluoromethoxy)methyl]pyrrolidin-3-yl]pyrazole-4-carboxamide], the IC50 was not above 100 nM.

Regarding `C=CC(=O)N1C[C@@H](n2nc(C#Cc3cc4nc(C)n(C)c4cc3Cl)c(C(N)=O)c2NC)C[C@@H]1COC` [Example 82, 3-[2-(6-Chloro-1,2-dimethyl-1,3-benzodiazol-5-yl)ethynyl]-1-[(3S,5R)-5-(methoxymethyl)-1-(prop-2-enoyl)pyrrolidin-3-yl]-5-(methylamino)pyrazole-4-carboxamide], the IC50 was not above 100 nM.

With `C=CC(=O)N1C[C@@H](n2nc(C#Cc3ccc4ccc(C)nc4c3)c(C(N)=O)c2NC)C[C@@H]1COC` [Example 83, 1-[(3S,5R)-5-(Methoxymethyl)-1-(prop-2-enoyl)pyrrolidin-3-yl]-5-(methylamino)-3-[2-(2-methylquinolin-7-yl)ethynyl]pyrazole-4-carboxamide], the IC50 was not above 100 nM.

For the molecule `C=CC(=O)N1C[C@@H](n2nc(C#Cc3c(F)cc4c(ncn4C)c3F)c(C(N)=O)c2NC)C[C@@H]1COC(F)(F)F` [Example 84], the IC50 is not above 100 nM.

Consider `C=CC(=O)N1C[C@@H](n2nc(C#Cc3c(F)cc4c(ncn4CC)c3F)c(C(N)=O)c2NC)C[C@@H]1COC(F)(F)F` [Example 85, 3-[2-(1-Ethyl-4,6-difluoro-1,3-benzodiazol-5-yl)ethynyl]-5-(methylamino)-1-[(3S,5R)-1-(prop-2-enoyl)-5-[(trifluoromethoxy)methyl]pyrrolidin-3-yl]pyrazole-4-carboxamide], for which the 50% inhibitory concentration (IC50) is not above 100 nM.

Regarding `C=CC(=O)N1C[C@@H](n2nc(C#Cc3cc4nc[nH]c4cc3F)c(C(N)=O)c2NC)C[C@@H]1COC(F)(F)F` [Example 86, 3-[2-(6-Fluoro-1H-1,3-benzodiazol-5-yl)ethynyl]-5-(methylamino)-1-[(3S,5R)-1-(prop-2-enoyl)-5-[(trifluoromethoxy)methyl]pyrrolidin-3-yl]pyrazole-4-carboxamide], the IC50 is not above 100 nM.

In the case of `C=CC(=O)N1C[C@@H](n2nc(C#Cc3cc4nc(C)[nH]c4cc3Cl)c(C(N)=O)c2NC)C[C@@H]1COC(F)(F)F` [Example 87, 3-[2-(6-Chloro-2-methyl-1H-1,3-benzodiazol-5-yl)ethynyl]-5-(methylamino)-1-[(3S,5R)-1-(prop-2-enoyl)-5-[(trifluoromethoxy)methyl]pyrrolidin-3-yl]pyrazole-4-carboxamide], the IC50 was not above 100 nM.

For `C=CC(=O)N1C[C@@H](n2nc(C#Cc3cc4ncn(C)c4cc3Cl)c(C(N)=O)c2NC)C[C@@H]1COC` [Example 88, 3-[2-(6-Chloro-1-methyl-1,3-benzodiazol-5-yl)ethynyl]-1-[(3S,5R)-5-(methoxymethyl)-1-(prop-2-enoyl)pyrrolidin-3-yl]-5-(methylamino)pyrazole-4-carboxamide], the IC50 is not above 100 nM.

`C=CC(=O)N1C[C@@H](n2nc(C#Cc3cc4ncn(CC)c4cc3Cl)c(C(N)=O)c2NC)C[C@@H]1COC` [Example 89, 3-[2-(6-Chloro-1-ethyl-1,3-benzodiazol-5-yl)ethynyl]-1-[(3S,5R)-5-(methoxymethyl)-1-(prop-2-enoyl)pyrrolidin-3-yl]-5-(methylamino)pyrazole-4-carboxamide]: the IC50 was not above 100 nM.

Consider `C=CC(=O)N1C[C@@H](n2nc(C#Cc3cc4nc[nH]c4cc3F)c(C(N)=O)c2NC)C[C@@H]1COC` [Example 90, 3-[2-(6-Fluoro-1H-1,3-benzodiazol-5-yl)ethynyl]-1-[(3S,5R)-5-(methoxymethyl)-1-(prop-2-enoyl)pyrrolidin-3-yl]-5-(methylamino)pyrazole-4-carboxamide], for which the IC50 was not above 100 nM.

As for `C=CC(=O)N1C[C@@H](n2nc(C#Cc3cc4nc(C)[nH]c4cc3F)c(C(N)=O)c2NC)C[C@@H]1COC` [Example 91, 3-[2-(6-Fluoro-2-methyl-1H-1,3-benzodiazol-5-yl)ethynyl]-1-[(3S,5R)-5-(methoxymethyl)-1-(prop-2-enoyl)pyrrolidin-3-yl]-5-(methylamino)pyrazole-4-carboxamide], the half-maximal inhibitory concentration (IC50) is not above 100 nM.

`C=CC(=O)N1C[C@@H](n2nc(C#Cc3cc4nc[nH]c4cc3Cl)c(C(N)=O)c2NC)C[C@@H]1COC` [Example 92, 3-[2-(6-Chloro-1H-1,3-benzodiazol-5-yl)ethynyl]-1-[(3S,5R)-5-(methoxymethyl)-1-(prop-2-enoyl)pyrrolidin-3-yl]-5-(methylamino)pyrazole-4-carboxamide]: the IC50 was not above 100 nM.

`C=CC(=O)N1C[C@@H](n2nc(C#Cc3cc4c(cc3Cl)ncn4C(F)F)c(C(N)=O)c2NC)C[C@@H]1COC` [Example 93, 3-[2-[6-Chloro-3-(difluoromethyl)-1,3-benzodiazol-5-yl]ethynyl]-1-[(3S,5R)-5-(methoxymethyl)-1-(prop-2-enoyl)pyrrolidin-3-yl]-5-(methylamino)pyrazole-4-carboxamide]: the IC50 was not above 100 nM.

Consider `C=CC(=O)N1C[C@@H](n2nc(C#Cc3cc4ncn(C(F)F)c4cc3Cl)c(C(N)=O)c2NC)C[C@@H]1COC` [Example 94, 3-[2-[6-Chloro-1-(difluoromethyl)-1,3-benzodiazol-5-yl]ethynyl]-1-[(3S,5R)-5-(methoxymethyl)-1-(prop-2-enoyl)pyrrolidin-3-yl]-5-(methylamino)pyrazole-4-carboxamide], for which the IC50 is not above 100 nM.

Take `C=CC(=O)N1C[C@@H](n2nc(C#Cc3cc4c(cc3Cl)nc(C)n4C(F)F)c(C(N)=O)c2NC)C[C@@H]1COC` [Example 95, 3-[2-[6-Chloro-3-(difluoromethyl)-2-methyl-1,3-benzodiazol-5-yl]ethynyl]-1-[(3S,5R)-5-(methoxymethyl)-1-(prop-2-enoyl)pyrrolidin-3-yl]-5-(methylamino)pyrazole-4-carboxamide]: the IC50 is 100 to 1000 nM.

Take `C=CC(=O)N1C[C@@H](n2nc(C#Cc3cc4nc(C)n(C(F)F)c4cc3Cl)c(C(N)=O)c2NC)C[C@@H]1COC` [Example 96, 3-[2-[6-Chloro-1-(difluoromethyl)-2-methyl-1,3-benzodiazol-5-yl]ethynyl]-1-[(3S,5R)-5-(methoxymethyl)-1-(prop-2-enoyl)pyrrolidin-3-yl]-5-(methylamino)pyrazole-4-carboxamide]: the IC50 is not above 100 nM.

As to `C=CC(=O)N1C[C@@H](n2nc(C#Cc3c(F)cc4c(nnn4C)c3F)c(C(N)=O)c2NC)C[C@@H]1COC` [Example 97, 3-[2-(4,6-Difluoro-1-methyl-1,2,3-benzotriazol-5-yl)ethynyl]-1-[(3S,5R)-5-(methoxymethyl)-1-(prop-2-enoyl)pyrrolidin-3-yl]-5-(methylamino)pyrazole-4-carboxamide], the IC50 is not above 100 nM.

Regarding `C=CC(=O)N1C[C@@H](n2nc(C#Cc3cc4nc(C)[nH]c4cc3Cl)c(C(N)=O)c2NC)C[C@@H]1COC` [Example 98, 3-[2-(6-Chloro-2-methyl-1R-1,3-benzodiazol-5-yl)ethynyl]-1-[(3S,5R)-5-(methoxymethyl)-1-(prop-2-enoyl)pyrrolidin-3-yl]-5-(methylamino)pyrazole-4-carboxamid], the IC50 was not above 100 nM.

`C=CC(=O)N1C[C@@H](n2nc(C#Cc3c(Cl)cc4c(ncn4CC)c3F)c(C(N)=O)c2NC)C[C@@H]1COC` [Example 99, 3-[2-(6-Chloro-1-ethyl-4-fluoro-1,3-benzodiazol-5-yl)ethynyl]-1-[(3S,5R)-5-(methoxymethyl)-1-(prop-2-enoyl)pyrrolidin-3-yl]-5-(methylamino)pyrazole-4-carboxamide]: the IC50 is not above 100 nM.

On to `C=CC(=O)N1C[C@@H](n2nc(C#Cc3c(Cl)cc4c(ncn4C)c3F)c(C(N)=O)c2NC)C[C@@H]1COC` [Example 100, 3-[2-(6-Chloro-4-fluoro-1-methyl-1,3-benzodiazol-5-yl)ethynyl]-1-[(3S,5R)-5-(methoxymethyl)-1-(prop-2-enoyl)pyrrolidin-3-yl]-5-(methylamino)pyrazole-4-carboxamide], for which the half-maximal inhibitory concentration (IC50) was not above 100 nM.
